Measurements published in patent US10682332B2, “Method for treating melanoma” (Huanggang normal University, priority 2017, dated 2020).

How the values were obtained:
[1] = system: human melanoma cancer cell A2058; experiment: Growth inhibition of human melanoma cancer cell A2058; type: cell-based; settings: 3.125-50 μmol solutions, 48 hrs culturing, absorbance
Procedure: (§1) The study was conducted using human melanoma cancer cell line A2058 or A375 as follows: culturing the cell line in DMEM medium; adding 5-hydroxy-3,6,7,8,3′,4′-hexamethoxyflavone with varying concentrations (3.125, 6.25, 12.5, 25, 50 μmol in 100 μl of 2% DMSO solution per liter of the medium); collecting the control and treated cells after 48 hrs of culturing and determining the cell viability by measuring light absorbance of the cells; and calculating the IC50 rate in the human melanoma cancer cells.
(§2) The cells derived from human melanoma lines A2058 and A375 were cultured in DMEM medium containing 100 U/mL penicillin, 100 μg/ml streptomycin, and 10% fetal bovine serum at a temperature of 37° C. and with carbon dioxide at a concentration of 5%. The cultured cells were divided into 6 study groups and each would be treated with 5-hydroxy-3,6,7,8,3′,4′-hexamethoxyflavone of a different concentration. […] After culturing for 48 hrs, the cells were collected and the absorbance of each treatment group was measured for calculating the IC50 rate in human melanoma cancer cell A2058 by the treatment. […]

[2] = system: human melanoma cancer cell A375; experiment: Growth inhibition of human melanoma cancer cell A375; type: cell-based; settings: 3.125-50 μmol solutions, 48 hrs culturing, absorbance
Procedure: as §1, §2

[3] = system: human melanoma cancer cell A375; experiment: Cell cycle arrest by PI staining and flow cytometry; type: cell-based; settings: 24 hrs, control 1.4%
Procedure: To further elucidate the mechanism of growth inhibition of the human melanoma cancer cells by 5-hydroxy-3,6,7,8,3′,4′-hexamethoxyflavone, another study was carried out using only human melanoma cancer cell A375 and 3 study groups. In one liter of the culturing media, 100 μL of 25 and 50 μmol of 5-hydroxy-3,6,7,8,3′,4′-hexamethoxyflavone prepared solutions were added to two study groups. The control group was only treated with 2% DMSO solution.
The studied cells were incubated for 24 hrs before collected in a centrifuge tube. The cells were then washed with PBS at 4° C. and n mixed with 70% ethanol pre-cooled at −20° C. before kept at 4° C. overnight. Next, the cells were centrifuged at 1000 rpm to remove ethanol and the cell density was adjusted to (1-2)×10^6 cells/mL by add PBS. Following adding PI and DNase-free RNase to respectively reach final concentrations of 50 μg/mL and 50 µg/mL, the cells were stained for cell cycle and apoptosis studies by flow cytometry. All studies were repeated 3 times and the averages were calculated.

[4] = system: human melanoma cancer cell A375-engrafted C57BL/6 mice; experiment: Tumor growth in human melanoma cancer cell A375-engrafted C57BL/6 mice; type: in vivo, mouse; settings: fed 0.4 mL of 0.5 μmol solution once every 2 days, 28 days after inoculation; control 2450 mm^3
Procedure: The study was carried out as follows: inoculating C57BL/6 mice with of the human melanoma cancer cells; dividing the mice into 2 groups with 8 mice in each group and treating them once every two days with (i) 0.4 ml of 2% DMSO, (ii) 0.4 ml of 2% DMSO containing 0.5 μmol of 5-hydroxy-3,6,7,8,3′,4′-hexamethoxyflavone; measuring tumor sizes after animal sacrificing 28 days post tumor cell inoculation.
The experimental C57BL/6 mice were divided into 2 groups, with 8 in each group. Each mouse was fed with 0.4 mL of 0.5 μmol 5-hydroxy-3,6,7,8,3′,4′-hexamethoxyflavone solution as in the treatment group or with 0.4 mL 2% DMSO solution as in the control group at a frequency of once every 2 days. Each mouse was inoculated with human melanoma cancer cell A375 following a standard protocol. 28 days after of the inoculation, the mice were sacrificed. Finally, sizes of tumors in each group of mice were measured and their averages were calculated.

COc1ccc(-c2oc3c(OC)c(OC)c(OC)c(O)c3c(=O)c2OC)cc1OC [2-(3,4-dimethoxy-phenyl)-5-hydroxy-3,6,7,8-tetramethoxy-chromen-4-one]
growth of human melanoma cancer cell A2058 [1]: inhibited the growth
growth of human melanoma cancer cell A375 [2]: inhibited the growth
G1 phase cells of the total cells ([3]; 25 μmol drug solution): 9.4%
G1 phase cells of the total cells ([3]; 50 μmol drug solution): 25%
average tumor size [4]: 890 mm^3
